Measurements taken from patent US8097656B2, “Nitrogenated trans-stilbene analogs, method for the obtention and medical applications thereof” (Dominion Pharmakine S.L, priority 2005, dated 2012).

Tests used:
MB16 cells [1] = assay: In vitro proliferation of MB16 cells in response to murine HSC soluble factors; assay type: cell-based; settings: for Increase in proliferation of B16 cells by MC-CEH (in words): 2.5 μM for 30 minutes before MC-CEH, 48 hours; for Proliferation of MB16 cells in response to murine HSC soluble factors (No. cells per well): 2.5 μM, 30 min before HSC-conditioned media, 48 h, control 16300 ± 300, treatment alone 21660 ± 500
Procedure: Culture of B16 (MB16) and A375 (MA375) melanoma cells. The MB 16 (B16F10 subline) murine tumor cells were cultured at 37° C., with 5% CO2 atmosphere in Dulbecco's modified Eagle's medium (DMEM)-HCO3 penicillin (100 U/ml), streptomycin (100 μg/ml), supplemented with 5% fetal bovine serum and adjusted to pH 7.4. The cells were maintained and subcultured according to the method described by Vidal-Vanaclocha et al. (1994) [Vidal-Vanaclocha, F., Amézaga, C., Asumendi, A., Kaplanski, G. & Dinarello, C. A. Interleukin-1 receptor blockade reduces the number and size of murine B16 melanoma hepatic metastases. Cancer Research, 1994, 54, 2667-2672]. The conditioned media were obtained from subconfluyent cultures maintained in absence of FBS for 24 hours.
In vitro Melanoma cell proliferation test. The MB16 or MA375 cells are seeded (2500 cells/well/200 μl) in DMEM medium (Dulbecco's modified Eagle's medium) with 10% fetal bovine serum (FBS). Once adhered, they were washed to remove the FBS and fresh medium was added in the presence or absence of 2.5 μM of the compounds to be tested. In the experiments with MA375, the compound azaresveratrol (see Table 4) was used, and in the experiments with MB16 cells, the compounds azaresveratrol, JE1:2, JE2:1 or JE2:2 (see FIG. 3) were used. Thirty (30) minutes later, 10 ng/ml of IL-18 or HSC-conditioned media (murines in the case of B16 and human ones in the case of A375) were added to some wells, and the plates were incubated for 48 hours at 37° C. with 5% CO2 Upon completion of the incubation period, the cells were fixed with […] for 1 hours, were washed and were allowed to dry in the incubator at 50° C. for 30 minutes. In following, 100 μl/well of sulforhodamine 101 (0.4% p/v) was added and they were incubated at room temperature in the dark for 30 minutes. After washing, 200 μl/well of Tris base 10 mM pH 10.5 was added and the fluorescence was measured by means of a 530 nm, 620 nm emission excitation filter plate fluorescence reader. The number of cells was calculated by extrapolating said fluorescence data on a standard straight line previously obtained based on the fluorescence emitted in an increasing number of cells.

HSE cells = assay: Migration of HSE cells treated with MC-MA375 (modified Boyden chamber); assay type: cell-based, human; settings: for Increase in migration of HSE induced by MC-A375 (in words): 12.5 μM 30 min prior to MC-A375; for Migration of HSE's treated with MC-MA375 (No. cells per field): 12.5 μM, 30 min before MC-MA375, 24 h, control 10.0 ± 4, treatment alone 35.0 ± 8.0
Description: isolation of primary human cultures of hepatic sinusoidal endothelial (HSE) hepatic stellate cells (HSCs). The primary cultures of human HSE and HSC cells were obtained by non-tumoral hepatic tissue serial profusion with collagenase and pronase solutions, followed by Nycodenz gradient and seeded on 24-well plates (0.5×10^4 cells/cm^2) in DMEM. supplemented with 10% FBS.
Human HSC and HSE cell migration tests (see Table 3). Primary cultured hepatic endothelial cells (25×10^5) or hepatic stellate cells (2×10^4) were seeded in the upper compartment of modified Boyden chambers equipped with a polycarbonate filter of an 8 μm pore size. Some cells were incubated in the presence or absence of 12.5 μM of azaresveratrol, 30 minutes prior to adding conditioned tumor medium. Twenty-four (24) hours later (in the case of the endothelial cells) or 4 hours later (in the case of hepatic star cells) the number of cells having passed through the membrane was determined. The cells were fixed, were stained with hematoxylin eosine and were counted under the microscope (20×) in 5 fields per well.

MB16 cells [2] = assay: Hydrogen peroxide production from MB16 cells (DCFH-DA probe); assay type: cell-based, murine; settings: 2.5 μM prior to IL-18; for H2O2 production by MB16 cells treated with IL-18: control 16.0 ± 3, IL-18 alone 34 ± 3.0
Procedure: Determination of hydrogen peroxide production from HSE and MB16 cells. Primary cultures of HSE cells were treated with 10 μg/ml of the DCFH-DA fluorescent probe for 30 minutes at 37° C. and were washed to eliminate the excess fluorochromium. Afterward, fresh culture medium was added thereto in the presence or absence of 2.5 μM of the compounds JE1:2, JE2:1 or JE2:2 and the production of H202 over the course of time was determined (see FIG. 5). The hydrogen peroxide produced by the cells oxidizes the probe, converting it into a fluorescent molecule. Thus, the cell fluorescence produced by the accumulation of DCF made it possible to detect the intracellular production of hydrogen peroxide. In each cell well, it was possible to determine the relative fluorescence value (arbitrary units of fluorescence brightness) in relation to the quantity of hydrogen peroxide produced at different incubation times. In the experiments with MB16 cells, once the cells had been marked with the DCFH-DA probe, they were incubated for 300 minutes with 2.5 μM of the azaresveratrol or JE2:2 compounds, 10 ng/ml of IL-18 (FIG. 4) then having been added.

MA375 cells = assay: MA375 cell adhesion to immobilized VCAM-1 substrates; assay type: cell-based, human; settings: 2.5 μM; for Adhesion of MA375 cells with H2O2 to immobilized VCAM-1 (% cells adhered): 10 μM H2O2, control 21.0 ± 4, H2O2 alone 41.3 ± 4.2; for Adhesion of MA375 cells treated with IL-18 to immobilized VCAM-1 (% cells adhered): control 21.0 ± 4, IL-18 alone 31.5 ± 3.2
Procedure: MB16 and MA375 cell adhesion to immobilized VCAM-1 substrates. The MB16 and MA375 cell adhesion tests were conducted on immobilized VCAM-1 substrates (2 μg/ml of recombinant human VCAM-1, R&D Systems, Minneapolis, Minn.) on 96-well plates. To avoid non-specific attachment to the plastic, 0.5% BSA dissolved in PBS was added to the wells for 2 hours at ambient temperature prior to conducting the adhesion test. The melanoma cells were preincubated with 2.5 μM of the compounds to be tested (azaresveratrol, see Table 2; JE1:2, JE2:1 and JE2:2 see FIG. 2; JEM2:2-01 and JEM2:1-02 see FIG. 7; YEF02, YEF03, YEF07, YEF05B, YEF07B and YEF05H. see FIG. 9) for 30 minutes, to which 10 μM of hydrogen peroxide or 10 ng/ml of IL-18 were added, respectively for a further 24 hours. Afterward, the cells were washed and marked with the BCECF-AM fluorescent probe (carboxyfluorescein, 2′,7′-bis-(2-carboxy-ethyl)-5-(6)carboxyfluorescein aminoxymethyl ester). Thirty minutes later, a washing process was performed to remove the excess fluorochromium, the number of viable cells being calculated by means of the trypan blue exclusion test and (5×10^4 cells/well) being added to the 96-well plate. The co-culture plates were incubator-incubated at 37° C. for 1 hours. The percentage of cellular adhesion was calculated by measuring the fluorescence emitted by the adhered cells (obtained after washing the plate) with regard to the fluorescence emitted by the total number of cells added. The results in the figures are given in values related to the adhesion percentages of the untreated melanoma cells.

| SMILES | Increase in proliferation of B16 cells by MC-CEH (in words) (MB16 cells [1]) | Proliferation of MB16 cells in response to murine HSC soluble factors (No. cells per well) (MB16 cells [1]) | Increase in migration of HSE induced by MC-A375 (in words) (HSE cells) | Migration of HSE's treated with MC-MA375 (No. cells per field) (HSE cells) | Increase of H2O2 production of MB16 cells in response to IL-18 (in words) (MB16 cells [2]) | H2O2 production by MB16 cells treated with IL-18 (MB16 cells [2]) | Adhesion of MA375 cells with H2O2 to immobilized VCAM-1 (% cells adhered) (MA375 cells) | Adhesion of MA375 cells treated with IL-18 to immobilized VCAM-1 (% cells adhered) (MA375 cells) |
| --- | --- | --- | --- | --- | --- | --- | --- | --- |
| Oc1ccc(/N=C/c2cc(O)cc(O)c2)cc1 [azaresveratrol, 5-((E)-(4-Hydroxyphenylimino)methyl)benzene-1,3-diol] | prevented | 16750 ± 135 | abolished | 15.5 ± 30 | significantly (P<0.01) inhibited | 10 ± 2.0 | 4.5 ± 0.3 | 5.0 ± 0.3 |
| Oc1ccc(C=Cc2cc(O)cc(O)c2)cc1 [resveratrol, reference compound] | prevented | 16800 ± 250 | abolished | 13.5 ± 5.0 | significantly (P<0.01) inhibited | 12 ± 1.0 | 6.5 ± 0.5 | 5.5 ± 0.4 |
